Tests used:
[1] = test system: iNKT hybridoma DN3A4-1.2 with human CD1d transfected HeLa cells; experiment: iNKT hybridoma stimulation (IL-2 secretion) with hCD1d expressing HeLa cells; assay type: cell-based; settings: BPGC 5 to 0.01 μg/ml for 3 hrs, hybridoma 18 hours
Description: The activated natural killer cells were again calculated based on those secreting IL-2. Specifically, plate bound human CD1d transfected HeLa cells (10,000 cells in 100 μl medium) were plated in a 96 well tissue culture plate and allowed to adhere to the plates for 30 minutes at 37° C. Adherent HeLa cells were treated with varying BPGC concentrations ranging between 5 and 0.01 μg/ml in 100 μl for 3 hrs at 37° C. Glycolipid not taken up by cells was removed by washing with medium. To detect the BPGC presentation by CD1d, iNKT hybridoma DN3A4-1.2 (5000 cells in 100 μl volume) was added and the stimulation was detected by the level of IL-2 secreted in the supernatant following incubation at 37° C. for 18 hours.

plate bound mCD1d = biological target: T1, plate bound mCD1d (Mus musculus, UniProt P11609); experiment: Ligand binding to plate bound mCD1d with and without UV activation, ELISA using mAb L363; design: species or system murine; settings: for dissociation of CD1d:glycolipid complex after 3 days (L363 ELISA): 3 days in PBS+0.05% Triton X-100 at 25° C.; for CD1d/glycolipid complex formation detected by mAb L363 ELISA: plate bound mCD1d 10 μg/ml, glycolipid 5 μM
T1 construct: recombinant soluble murine CD1d (mCD1d) was diluted to 400 μg/ml in PBS pH 7.2
T1 sequence (P11609 22-305 limits assumed): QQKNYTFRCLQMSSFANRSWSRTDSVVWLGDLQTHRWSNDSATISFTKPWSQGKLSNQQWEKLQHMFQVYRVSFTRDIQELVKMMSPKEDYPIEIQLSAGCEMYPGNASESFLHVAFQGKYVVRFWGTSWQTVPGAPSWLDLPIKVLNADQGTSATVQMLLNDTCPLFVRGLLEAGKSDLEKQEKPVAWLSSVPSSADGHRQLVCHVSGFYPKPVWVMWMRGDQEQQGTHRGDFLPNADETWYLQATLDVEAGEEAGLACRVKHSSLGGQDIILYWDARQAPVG
T1 sequence (P01887 21-119 partner): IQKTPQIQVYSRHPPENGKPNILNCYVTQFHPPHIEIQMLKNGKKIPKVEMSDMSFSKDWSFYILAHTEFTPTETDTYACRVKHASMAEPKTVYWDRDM
Description: (§1) The ligand binding affinity of plate bound mCD1d was measured by ELISA using mAb L363 to detect murine CD1d/αGalCer complexes. ELISA plates were coated with mCD1d (10 μg/ml, 30 μl/well) overnight at 4° C. in PBS pH 8.2. Supernatant was then removed along with any unbound protein. Glycolipids (5 μM, 30 μl/well) were loaded and allowed to incubate overnight at 25° C. Supernatant was again removed and the complexes were washed three times with PBS to remove any unbound glycolipid. For those complexes that underwent UV activation, UV crosslinking was performed in solution (30 μl/well PBS) and at a fixed wavelength of 365 nm from a UV lamp (RAD-FREE long wave UV lamp, Schleicher & Schuell). The UV lamp was placed one inch from the sample and the sample was allowed to sit on ice for 1 hr.

[2] = test system: iNKT hybridoma DN3A4-1.2 with plate bound mCD1d; experiment: Plate bound mCD1d:glycolipid complexes with and without UV activation, iNKT DN3A4-1.2 hybridoma stimulation assay (IL-2 ELISA); assay type: cell-based, murine; settings: for iNKT hybridoma stimulation following UV crosslinking (IL-2 ELISA): UV crosslinked 365 nm 1 hr; for iNKT stimulation post-dissociation (IL-2 ELISA): after 3 days dissociation, non-crosslinked mCD1d complexes (UV state not stated for 7DW8-5)
Description: (§2) The ligand binding affinity of plate bound mCD1d was detected by iNKT DN3A4-1.2 hybridoma stimulation assay. mCD1d (10 μg/ml) was loaded with glycolipids (5 μM) overnight at 25° C. ELISA plates were coated with mCD1d:GC complexes (2.5 μg/ml, 30 μl/well) for 12-18 hours at 4° C. in PBS pH 8.2. Supernatant was then removed and the complexes were washed three times with PBS to remove any unbound glycolipid and protein. For those complexes that underwent UV activation, UV crosslinking was performed in solution (30 μl/well PBS) and at a fixed wavelength of 365 nm from a UV lamp (RAD-FREE long wave UV lamp, Schleicher & Schuell). The UV lamp was placed one inch from the sample and the sample was allowed to sit on ice for 1 hr. Supernatant was then removed and the complexes were washed three times with PBS to remove any unbound glycolipid and protein.

[3] = biological target: T2, soluble recombinant mCD1d (Mus musculus, UniProt P11609); experiment: Direct comparison of DB12-8 and 7DW8-5 complexes with soluble recombinant mCD1d, L363 ELISA; assay type: binding, murine; settings: for affinity to CD1d, complex detected by L363 ELISA: mCD1d 10 μg/ml, glycolipid 5 μM
T2 construct: A soluble recombinant mCD1d protein (10 μg/ml) was loaded with glycolipids
T2 sequence (P11609 22-305 limits assumed): T1 sequence (P11609 22-305 limits assumed)
T2 sequence (P01887 21-119 partner): T1 sequence (P01887 21-119 partner)
Description: as §1, §2
A soluble recombinant mCD1d protein (10 μg/ml) was loaded with glycolipids (5 μM) overnight at 25° C. in PBS pH8.2 with 0.05% tyloxapol. The mCD1d:GC complexes (10 μg/ml, 30 μl/well) were coated onto the high binding ELISA plates, overnight at 4° C. UV exposure and incubation to allow dissociation over 3 days was performed as described in Examples 6 and 7.

mCD1d.CEA fusion protein = experiment: Direct comparison of DB12-8 and 7DW8-5 complexes with mCD1d.CEA fusion protein, L363 ELISA; assay type: binding, murine; settings: for affinity to CD1d, complex detected by L363 ELISA: mCD1d.CEA 10 μg/ml, glycolipid 5 μM
Description: as §1, §2
mCD1d.CEA (10 μg/ml), a recombinant mCD1d protein genetically fused with a single chain Fv antibody fragment specific for the tumor associated antigen CEA, was loaded with glycolipids (5 μM) overnight at 25° C. in PBS pH8.2 with 0.05% tyloxapol. The mCD1d.CEA:GC complexes (10 μg/ml, 30 μl/well) were coated onto wells of high binding ELISA 96 well plates overnight at 4° C. UV exposure and incubation to allow dissociation over 3 days were performed as described in Examples 6 and 7.
A scale up of the complex formation in solution was performed using a 10-fold increased concentration of protein and glycolipid and the results are shown in FIG. 9C-9D. mCD1d.CEA (100 μg/ml) was loaded with DB12-8 (50 μM respectively) overnight at 25° C. in PBS pH8.2 with 0.05% tyloxapol. DB12-8:mCD1d.CEA complexes were diluted down to 10 μg/ml and were coated onto the high binding ELISA plates (30 μl/well), overnight at 4° C. UV exposure and incubation to allow dissociation over 3 days were performed as described in Examples 6 and 7.

[4] = test system: iNKT hybridoma DN3A4-1.2 with murine CD1d-expressing antigen presenting cells; experiment: iNKT hybridoma stimulation (IL-2 secretion) with mCD1d expressing BMDCs; assay type: cell-based, mouse; settings: BMDCs from C57BL/6 mice, BPGC 5 to 0.01 μg/ml for 3 hrs, hybridoma 18 hrs
Description: The activated natural killer cells were calculated based on those secreting IL-2. Specifically, bone marrow-derived dendritic cells (BMDCs) from C57BL/6 mice (10,000 cells in 100 μl culture medium) were plated in wells of a 96 well tissue culture plate and allowed to adhere to the plates for 30 minutes at 37° C. The cultures were then exposed to varying BPGC concentrations ranging between 5 and 0.01 μg/ml in 100 μl for 3 hrs at 37° C. Glycolipids not taken up by BMDCs were removed by washing with culture medium. To detect the BPGC presentation by CD1d, iNKT hybridoma DN3A4-1.2 (5000 cells in 100 μl volume) was added and the stimulation was detected by the level of IL-2 secreted in the supernatant following 18 hrs of incubation at 37° C.

mouse CD1d = biological target: T3, mouse CD1d (Mus musculus, UniProt P11609); experiment: Tryptophan fluorescence quenching of mCD1d by glycolipid binding; settings: protein 0.1 μM, glycolipid 4 μM, 25° C., excited at λ295
T3 construct: recombinant soluble murine CD1d (mCD1d) was diluted to 400 μg/ml in PBS pH 7.2
T3 sequence (P11609 22-305 limits assumed): T1 sequence (P11609 22-305 limits assumed)
T3 sequence (P01887 21-119 partner): T1 sequence (P01887 21-119 partner)
Description: The effect of glycolipid binding to mouse CD1d was tested. Fluorescence quenching of mCD1d due to glycolipid binding was measured using a Horibo Jobin Yvon Fluoromax-3 fluorescent spectrophotometer and the data were analyzed using FluorEssence software. Protein (0.1 μM) was mixed either with glycolipid antigens (at 4 μM) or the ligand vehicle in a quartz cuvette 1 cm wide, to a final volume of 100 μl and placed in the spectrometer already set at 25° C. The samples were excited at λ295 and emission measured from […] to λ400.

| SMILES | iNKT stimulation, level of IL-2 secreted in the supernatant [1] | dissociation of CD1d:glycolipid complex after 3 days (L363 ELISA) (plate bound mCD1d; UV irradiated 365 nm 1 hr) | CD1d/glycolipid complex formation detected by mAb L363 ELISA (plate bound mCD1d) | iNKT hybridoma stimulation following UV crosslinking (IL-2 ELISA) [2] | iNKT stimulation post-dissociation (IL-2 ELISA) [2] | binding to CD1d ([2]; following UV crosslinking) | dissociation after 3 days (L363 ELISA signal) ([3]; UV exposure at 365 nm) | affinity to CD1d, complex detected by L363 ELISA [3] | dissociation after 3 days (L363 ELISA signal) ([3]; non UV-crosslinked state) | reduction in OD450 after 3 days (mCD1d.CEA fusion protein; 10-fold scale up (mCD1d.CEA 100 μg/ml, DB12-8 50 μM), UV-crosslinked samples) | decrease in OD450 after 3 days incubation (mCD1d.CEA fusion protein; 10-fold scale up (mCD1d.CEA 100 μg/ml, DB12-8 50 μM), non-crosslinked complexes) [%] | dissociation after 3 days (L363 ELISA signal) (mCD1d.CEA fusion protein; UV exposure at 365 nm) | affinity to CD1d, complex detected by L363 ELISA (mCD1d.CEA fusion protein) | L363 ELISA signal following UV-crosslinking (mCD1d.CEA fusion protein; mCD1d.CEA complex) | dissociation after 3 days (L363 ELISA signal) (mCD1d.CEA fusion protein; non UV-crosslinked state) | dissociation of CD1d:glycolipid complex after 3 days (L363 ELISA) (plate bound mCD1d; not UV irradiated) | iNKT stimulation, level of IL-2 secreted in the supernatant [4] | fluorescence quenching of mCD1d due to glycolipid binding (mouse CD1d) |
| --- | --- | --- | --- | --- | --- | --- | --- | --- | --- | --- | --- | --- | --- | --- | --- | --- | --- | --- |
| CCCCCCCCCCCCCC[C@@H](O)[C@@H](O)[C@H](COC1OC(CO)C(O)C(O)C1O)NC(=O)CCCCCCCCCCOCc1cccc(C(=O)c2ccccc2)c1 (some centres unmarked) [DB12-8] | stimulatory toward iNKT cells | no significant dissociation | highest levels of immunoreactive complex formation | stimulated iNKT hybridoma better than other glycolipids | some, albeit reduced, iNKT stimulation even after dissociation | bound efficiently to CD1d | no dissociation was observed | showed affinity to CD1d | dissociated almost completely | no detectable reduction in OD450 | ~75 | no dissociation was observed | showed affinity to CD1d | increases significantly | almost completely dissociated | – | – | – |
| CCCCCCCCCCCCCC[C@@H](O)[C@@H](O)[C@H](CO[C@H]1O[C@H](CO)[C@H](O)[C@H](O)[C@H]1O)NC(=O)CCCCCCCCCCc1ccc(F)cc1 [Compound 7DW8-5, reference compound] | – | dissociated after 3 days | – | – | did not stimulate iNKT post-dissociation | – | almost complete loss of signal | showed affinity to CD1d | almost complete loss of signal | – | – | almost complete loss of signal | showed affinity to CD1d | – | almost complete loss of signal | dissociated after 3 days | – | – |
| CCCCCCCCCCCCCC[C@@H](O)[C@@H](O)[C@H](COC1OC(CO)C(O)C(O)C1O)NC(=O)CCCCCCCCCCCOCc1cccc(C(=O)c2ccccc2)c1 (some centres unmarked) [DB12-9] | – | no significant dissociation | highest levels of immunoreactive complex formation | – | some, albeit reduced, iNKT stimulation even after dissociation | – | – | – | – | – | – | – | – | – | – | – | – | – |
| CCCCCCCCCCCCCC[C@@H](O)[C@@H](O)[C@H](COC1OC(CO)C(O)C(O)C1O)NC(=O)CCCCCCCCCOCc1cccc(C(=O)c2ccccc2)c1 (some centres unmarked) [DB11-2] | stimulatory toward iNKT cells | no significant dissociation | highest levels of immunoreactive complex formation | second best stimulator | some, albeit reduced, iNKT stimulation even after dissociation | – | – | – | – | – | – | – | – | – | – | – | stimulated iNKTs most efficiently at a low concentration of 0.1 μg/ml | – |
| CCCCCCCCCCCCCCCCCCCCCCCCCC(=O)N[C@@H](CO[C@H]1O[C@H](CO)[C@H](O)[C@H](O)[C@H]1O)[C@H](O)[C@H](O)CCCCCCCCCCCCCC [KRN7000, (2S,3S,4R)-1-O-(α-D-galactopyranosyl)-N-hexacosanoyl-2-amino-1,3,4-octadecanetriol, reference compound] | – | dissociated after 3 days | – | – | – | – | – | – | – | – | – | – | – | – | – | dissociated after 3 days | – | – |
| CCCCCCCCCCCCCC[C@@H](O)[C@@H](O)[C@H](COC1OC(CO)C(O)C(O)C1O)NC(=O)CCCCCCCCOCc1cccc(C(=O)c2ccccc2)c1 (some centres unmarked) [DB12-7] | – | – | – | – | some, albeit reduced, iNKT stimulation even after dissociation | – | – | – | – | – | – | – | – | – | – | – | lower but still significant IL-2 secretion | greatest quenching |

Reference: patent US10111950B2, “Modified glycolipids and methods of making and using the same” (Vaccinex, Inc., priority 2013, dated 2018)
